Experimental data taken from patent publication US10195164B2, “Use of disulfiram for inflammatory breast cancer therapy” (Duke University, priority 2015, dated 2019).

How the values were obtained:
[1] = tested on: SUM149 cells; assay: Trypan blue viability assay; type: cell-based, human; settings: for effect of Cu chelator on DSF-Cu-induced cell death: BCS 100 μM, TM 10 μM
Protocol: (§1) Cells were treated for 24 h in regular growth medium with Disulfiram (Sigma), CuSO4 (VWR), SOD mimetic (MnTnHex-2-PyP^5+), bathocuproine disulfonate (BCS, Sigma), and tetrathiomolybdate (TM, Sigma). Cell viability was determined by trypan blue exclusion as described previously (Aird et al., 2008) where % viability was calculated as live cells/total cells×100.

[2] = tested on: rSUM149 cells; assay: Trypan blue viability assay; type: cell-based, human; settings: for effect of Cu chelator on DSF-Cu-induced cell death: BCS 100 μM, TM 10 μM
Protocol: as §1

[3] = tested on: tumor xenografts; assay: Tumor radiation control curve with MnSOD mimic; type: in vivo
[4] = tested on: IBC cells; assay: Trypan blue viability assay, IBC cell lines overall; type: cell-based
Protocol: as §1

[5] = accepted daily dosing of 250-500 mg, human plasma; cited from earlier work
[6] = tested on: BCM2 Xenograft brain metastatic cells; settings: due to upregulation of GSH; cited from earlier work
[7] = tested on: ctr1/ctr3Δ mutant MPY17 S. cerevisiae cells; assay: Complementation of S. cerevisiae Cu+-transport mutants; type: cell-based, Saccharomyces cerevisiae; settings: YPEG media, 30° C., 3 days, absorbance at 600 nm
Protocol: SEY6210 (wild type) (Robinson et al., 1988) and ctr1/ctr3Δ mutant MPY17 S. cerevisiae cells (Pena et al., 1998) were grown in YPEG media (3% ethanol, 3% glycerol, 1% yeast extract, 2% Bacto Peptone, 2% agar) with addition of 0-50 μM known Cu ionophore, zinc pyrithione (ZPT) (Reeder et al., 2011), or DSF. Cells were allowed to grow at 30° C. for 3 days; growth was assessed by measuring optical density at 600 nm on a Spectramax Plus 384 plate reader (Molecular Devices).

[8] = tested on: IBC cells (SUM149, rSUM149); assay: Cell-associated Cu in cell lysates by ICP-HRMS; type: cell-based; settings: 10 μM Cu, 24 h
Protocol: Cell lysates were prepared as above. For tumors, a portion of each tumor was placed into tissue lysis buffer (GoldBio Technology) and homogenized using the Bullet Blender Storm and lysis beads (MidSci). Lysates were analyzed for Cu content using a Thermo Scientific Element 2 inductively coupled plasma high-resolution mass spectrometer (ICP-HRMS) at the W. M. Keck Elemental Geochemistry Laboratory (University of Michigan, Ann Arbor, Mich.), and Cu content of lysis buffer blank was subtracted from each sample. Values were normalized to protein for reporting as ng Cu/mg protein.

[9] = tested on: ALDH; assay: ALDEFLUOR assay; type: cell-based, human; settings: SUM149 cells, 24 h, sub-lethal dose
Protocol: ALDH enzymatic activity was assessed using the ALDEFLUOR kit (Stem Cell Technologies) according to the manufacturer's instructions. Briefly, cells were incubated with ALDH substrate for 35 minutes at 37° C. The specific ALDH inhibitor diethylaminobenzaldehyde (DEAB) was used as negative control. Sorting gates were established using 7-AAD stained cells for viability and ALDEFLUOR-stained cells treated with DEAB as negative controls. Dot plots from a representative experiment are shown with mean±SEM from four experiments.

[10] = tested on: Nrf2; assay: Nrf2 activity assay (ARE luciferase reporter); type: cell-based; settings: Cu 10 μM, DSF 10-20 μM, DSF-Cu 150 nM
Protocol: Cells in opaque 96-well plates (Greiner Bio-One) were transfected with pGL4.37 (ARE firefly luciferase reporter, Promega) and pGL4.75 (Renilla luciferase control, Promega) plasmids using a 3:1 ratio of […] (Roche Applied Science, Indianapolis, Ind.) to DNA. The next day, cells were treated with as indicated. After 24 h, the Dual-Glo Luciferase Assay System (Promega) was used and luminescence read on a Veritas microplate luminometer (Turner BioSystems). Firefly luminescence was normalized to Renilla luminescence for each sample, and this value normalized to untreated.

[SH-].[SH-].[S]=[Mo]=[S] [TM, tetrathiomolybdate]
effect of Cu chelator on DSF-Cu-induced cell death [1]: almost completely blocked DSF-Cu-induced cell death | effect of Cu chelator on DSF-Cu-induced cell death [2]: almost completely blocked DSF-Cu-induced cell death

MnBuOE
dose modifying factor ([3]; radiosensitization of xenograft tumors): 1.3 | TCD50 dose ([3]; total RT applied in 5 fractions, treatment pre- and post-RT, saline controls 47Gy): 36.5 Gy

CCN(CC)C(=S)SSC(=S)N(CC)CC [DSF, Disulfiram]
IC50 ([1]; Homo sapiens, SUM149, DSF alone, 24 h, trypan blue exclusion): ~17 µM | IC50 ([2]; Homo sapiens, DSF alone, 24 h, trypan blue exclusion): 25 to 30 µM | concentrations at which DSF induced toxicity ([4]; DSF alone): greater than 10 μM | plasma concentration [5]: < 2000 nM

CC(C)C[C@H](NC(=O)[C@H](Cc1ccccc1)NC(=O)c1cnccn1)B(O)O [bortezomib]
fold less sensitive to bortezomib [6]: drugs; brain metastatic cells 60-fold less

Cc1cc(-c2ccc(S(=O)(=O)O)cc2)c2ccc3c(-c4ccc(S(=O)(=O)O)cc4)cc(C)nc3c2n1 [BCS, bathocuproine disulphonate]
effect of Cu chelator on DSF-Cu-induced cell death [1]: almost completely blocked DSF-Cu-induced cell death | effect of Cu chelator on DSF-Cu-induced cell death [2]: almost completely blocked DSF-Cu-induced cell death

zinc pyrithione [ZPT]
growth of MPY17 cells [7]: grew similarly to the SEY6210 cells

MnTnHexyl-2-PyP^5+
effect of SOD mimetic on DSF-Cu cell death ([2]; 100-200 μM SOD mimetic): blocked cell death caused by DSF-Cu treatment

O=S(=O)([O-])[O-].[Cu+2] [Cu, CuSO4]
cytotoxicity ([4]; Cu alone (10 μM), 24 h): not cytotoxic | Cu accumulation [8]: slight increase | ALDH+ population [9]: neither DSF nor Cu alone affected | Nrf2 transcriptional activity [10]: induced Nrf2 transcriptional activity
